System: angioedema in CSU patients
Assay: Phase 2 CSU study: angioedema activity score over 7 days (AAS7)
Type: in vivo, human
Details: 400 mg TID; for AAS7 = 0, OR (95% CI) for rilzabrutinib vs. placebo / AAS7 = 0, RRD (%) for rilzabrutinib vs. placebo (95% CI) / AAS7 Post-baseline Mean (SD) / Participants with AAS7 = 0, Responder n (%) / AAS7 % Change difference for rilzabrutinib vs. placebo LS Mean (95% CI) / AAS7 Change difference for rilzabrutinib vs. placebo LS Mean (95% CI) / AAS7 Change from baseline LS Mean (SE) / AAS7 % Change from baseline LS Mean (SE) / AAS7 = 0, Non-responder n (%): angioedema at baseline; for Non-responder n (%), AAS7 = 0 / OR (95% CI) for rilzabrutinib vs. placebo, AAS7 = 0 / RRD (%) for rilzabrutinib vs. placebo (95% CI), AAS7 = 0 / Responder n (%), AAS7 = 0: outlier removed
Description: The study comprises a 12 week, randomized, double-blind, placebo-controlled, multi-center, dose-ranging efficacy and safety phase, followed by a 40 week open label extension (OLE) phase (see FIG. 1). The study consists of three phases and an optional OLE phase. […] The weekly angioedema activity score (AAS7) was proposed as a tertiary endpoint. […] Patients were to complete the AAS using the e-diary. The e-diary was to be used once daily on the same time of each day recording of participant's answers to the angioedema activity score over 7 days (AAS7) questionnaire.

CC(C)(C=C(C#N)C(=O)N1CCC[C@@H](n2nc(-c3ccc(Oc4ccccc4)cc3F)c3c(N)ncnc32)C1)N1CCN(C2COC2)CC1 [rilzabrutinib, (R)-2-[3-[4-amino-3-(2-fluoro-4-phenoxy-phenyl)pyrazolo[3,4-d]pyrimidin-1-yl]piperidine-1-carbonyl]-4-methyl-4-[4-(oxetan-3-yl)piperazin-1-yl]pent-2-enenitrile]
AAS7 = 0, OR (95% CI) for rilzabrutinib vs. placebo (Week 8, omalizumab-naïve): 0.690
AAS7 = 0, RRD (%) for rilzabrutinib vs. placebo (95% CI) (Week 8, omalizumab-naïve): −6.2 %
AAS7 Post-baseline Mean (SD) (Week 8, omalizumab-naïve): 12.20 (13.05)
Participants with AAS7 = 0, Responder n (%) (Week 8, omalizumab-naïve): 6 (26.1) n (%)
AAS7 % Change difference for rilzabrutinib vs. placebo LS Mean (95% CI) (Week 9, ITT): −34.54 (−64.85, −4.23) %
AAS7 Change difference for rilzabrutinib vs. placebo LS Mean (95% CI) (Week 9, ITT): −13.12 (−23.93, −2.31)
AAS7 Change from baseline LS Mean (SE) (Week 9, ITT): −42.57 (4.09)
AAS7 Post-baseline Mean (SD) (Week 9, ITT): 7.98 (11.59)
Non-responder n (%), AAS7 = 0 (Week 9, omalizumab-naïve): 15 (44.1) n (%)
OR (95% CI) for rilzabrutinib vs. placebo, AAS7 = 0 (Week 9, omalizumab-naïve): 1.155
RRD (%) for rilzabrutinib vs. placebo (95% CI), AAS7 = 0 (Week 9, omalizumab-naïve): 3.6 %
Responder n (%), AAS7 = 0 (Week 9, omalizumab-naïve): 19 (55.9) n (%)
AAS7 % Change difference for rilzabrutinib vs. placebo LS Mean (95% CI) (Week 9, omalizumab-naïve): −37.56 (−71.28, −3.83) %
AAS7 % Change from baseline LS Mean (SE) (Week 9, omalizumab-naïve): −84.73 (12.57) %
AAS7 = 0, Non-responder n (%) (Week 9, omalizumab-naïve): 13 (56.5) n (%)
AAS7 = 0, OR (95% CI) for rilzabrutinib vs. placebo (Week 9, omalizumab-naïve): 1.358
AAS7 = 0, RRD (%) for rilzabrutinib vs. placebo (95% CI) (Week 9, omalizumab-naïve): 6.9 %
AAS7 Post-baseline Mean (SD) (Week 9, omalizumab-naïve): 8.52 (12.19)
Participants with AAS7 = 0, Responder n (%) (Week 9, omalizumab-naïve): 10 (43.5) n (%)
AAS7 % Change difference for rilzabrutinib vs. placebo LS Mean (95% CI) (Week 10, ITT): −38.35 (−79.56, 2.86) %
AAS7 % Change from baseline LS Mean (SE) (Week 10, ITT): −87.33 (15.54) %
AAS7 Change difference for rilzabrutinib vs. placebo LS Mean (95% CI) (Week 10, ITT): −13.07 (−24.96, −1.18)
AAS7 Change from baseline LS Mean (SE) (Week 10, ITT): −43.40 (4.49)
AAS7 Post-baseline Mean (SD) (Week 10, ITT): 7.10 (9.58)
Non-responder n (%), AAS7 = 0 (Week 10, omalizumab-naïve): 16 (47.1) n (%)
RRD (%) for rilzabrutinib vs. placebo (95% CI), AAS7 = 0 (Week 10, omalizumab-naïve): 6.0 %
Responder n (%), AAS7 = 0 (Week 10, omalizumab-naïve): 18 (52.9) n (%)
AAS7 % Change from baseline LS Mean (SE) (Week 10, omalizumab-naïve): −89.99 (16.85) %
AAS7 = 0, Non-responder n (%) (Week 10, omalizumab-naïve): 13 (56.5) n (%)
AAS7 = 0, OR (95% CI) for rilzabrutinib vs. placebo (Week 10, omalizumab-naïve): 1.627
AAS7 = 0, RRD (%) for rilzabrutinib vs. placebo (95% CI) (Week 10, omalizumab-naïve): 11.0 %
AAS7 Post-baseline Mean (SD) (Week 10, omalizumab-naïve): 6.83 (9.73)
Participants with AAS7 = 0, Responder n (%) (Week 10, omalizumab-naïve): 10 (43.5) n (%)
AAS7 % Change difference for rilzabrutinib vs. placebo LS Mean (95% CI) (Week 11, ITT): −15.53 (−43.68, 12.62) %
AAS7 Change difference for rilzabrutinib vs. placebo LS Mean (95% CI) (Week 11, ITT): −6.88 (−18.42, 4.67)
AAS7 Change from baseline LS Mean (SE) (Week 11, ITT): −40.74 (4.34)
AAS7 Post-baseline Mean (SD) (Week 11, ITT): 9.40 (13.36)
Non-responder n (%), AAS7 = 0 (Week 11, omalizumab-naïve): 15 (44.1) n (%)
OR (95% CI) for rilzabrutinib vs. placebo, AAS7 = 0 (Week 11, omalizumab-naïve): 1.142
RRD (%) for rilzabrutinib vs. placebo (95% CI), AAS7 = 0 (Week 11, omalizumab-naïve): 3.1 %
Responder n (%), AAS7 = 0 (Week 11, omalizumab-naïve): 19 (55.9) n (%)
AAS7 = 0, Non-responder n (%) (Week 11, omalizumab-naïve): 13 (56.5) n (%)
AAS7 = 0, OR (95% CI) for rilzabrutinib vs. placebo (Week 11, omalizumab-naïve): 1.160
AAS7 = 0, RRD (%) for rilzabrutinib vs. placebo (95% CI) (Week 11, omalizumab-naïve): 3.1 %
AAS7 Post-baseline Mean (SD) (Week 11, omalizumab-naïve): 9.80 (13.81)
Participants with AAS7 = 0, Responder n (%) (Week 11, omalizumab-naïve): 10 (43.5) n (%)
AAS7 % Change difference for rilzabrutinib vs. placebo LS Mean (95% CI) (Week 12, ITT): −19.84 (−46.44, 6.76) %
AAS7 % Change from baseline LS Mean (SE) (Week 12, ITT): −82.82 (10.03) %
AAS7 Change difference for rilzabrutinib vs. placebo LS Mean (95% CI) (Week 12, ITT): −8.06 (−19.05, 2.94)
AAS7 Change from baseline LS Mean (SE) (Week 12, ITT): −43.36 (4.14)
AAS7 Post-baseline Mean (SD) (Week 12, ITT): 7.37 (12.64)
patients with angioedema score (AAS7) of 0 (Week 12, omalizumab-naïve): 60.9%
Non-responder n (%), AAS7 = 0 (Week 12, omalizumab-naïve): 12 (35.3) n (%)
OR (95% CI) for rilzabrutinib vs. placebo, AAS7 = 0 (Week 12, omalizumab-naïve): 1.685
RRD (%) for rilzabrutinib vs. placebo (95% CI), AAS7 = 0 (Week 12, omalizumab-naïve): 13.0 %
Responder n (%), AAS7 = 0 (Week 12, omalizumab-naïve): 22 (64.7) n (%)
AAS7 = 0, Non-responder n (%) (Week 12, omalizumab-naïve): 9 (39.1) n (%)
AAS7 = 0, OR (95% CI) for rilzabrutinib vs. placebo (Week 12, omalizumab-naïve): 3.085
AAS7 = 0, RRD (%) for rilzabrutinib vs. placebo (95% CI) (Week 12, omalizumab-naïve): 29.7 %
